According to the NIST ThermoML archive (doi:10.1016/j.jct.2015.08.033):
± gives the expanded uncertainty stated by the source.

Tests used:
[1] = 100 kPa, Liquid; for speed of sound: Frequency=3 MHz, Sing-around technique in a fixed-path interferometer; for mass density: Vibrating tube method
[2] = mn = molality of the nth substance listed, in mol/kg; settings: 100 kPa, Liquid, m2 = 0; for speed of sound: Frequency=3 MHz, Sing-around technique in a fixed-path interferometer; for mass density: Vibrating tube method

SMILES	speed of sound ([1]; 298.15 K) [m/s]	mass density ([1]; 298.15 K) [kg/m3]	speed of sound ([1]; 303.15 K) [m/s]	mass density ([1]; 303.15 K) [kg/m3]	speed of sound ([1]; 308.15 K) [m/s]	mass density ([1]; 308.15 K) [kg/m3]	speed of sound ([1]; 313.15 K) [m/s]	mass density ([1]; 313.15 K) [kg/m3]	speed of sound ([1]; 318.15 K) [m/s]	mass density ([1]; 318.15 K) [kg/m3]	speed of sound ([2]; 298.15 K) [m/s]	mass density ([2]; 298.15 K) [kg/m3]	speed of sound ([2]; 303.15 K) [m/s]	mass density ([2]; 303.15 K) [kg/m3]	speed of sound ([2]; 308.15 K) [m/s]	mass density ([2]; 308.15 K) [kg/m3]	speed of sound ([2]; 313.15 K) [m/s]	mass density ([2]; 313.15 K) [kg/m3]	speed of sound ([2]; 318.15 K) [m/s]	mass density ([2]; 318.15 K) [kg/m3]
CC(=O)N(C)C [N,N-dimethylethanamide]	1455.8 ± 1.3	936.281 ± 0.14	1436 ± 1.3	931.672 ± 0.14	1416.1 ± 1.3	927.055 ± 0.14	1396.5 ± 1.3	922.422 ± 0.14	1376.9 ± 1.3	917.788 ± 0.14	–	–	–	–	–	–	–	–	–	–
CC(=O)N(C)C [N,N-dimethylethanamide] + O=S(=O)([O-])C(F)(F)F.O=S(=O)([O-])C(F)(F)F.[Ca+2]	–	–	–	–	–	–	–	–	–	–	1455.7 ± 1.3	936.279 ± 0.45	1435.9 ± 1.3	931.67 ± 0.45	1416.1 ± 1.3	927.058 ± 0.45	1396.5 ± 1.3	922.429 ± 0.45	1376.9 ± 1.3	917.793 ± 0.45
CC(=O)N(C)C [N,N-dimethylethanamide] + O=S(=O)([O-])C(F)(F)F.O=S(=O)([O-])C(F)(F)F.[Mg+2]	–	–	–	–	–	–	–	–	–	–	1455.9 ± 1.3	936.279 ± 0.46	1436 ± 1.3	931.67 ± 0.46	1416.2 ± 1.3	927.047 ± 0.46	1396.5 ± 1.3	922.416 ± 0.46	1376.9 ± 1.3	917.78 ± 0.46
CC(=O)N(C)C [N,N-dimethylethanamide] + O=S(=O)([O-])C(F)(F)F.O=S(=O)([O-])C(F)(F)F.[Sr+2]	–	–	–	–	–	–	–	–	–	–	1455.9 ± 1.3	936.29 ± 0.52	1435.9 ± 1.3	931.679 ± 0.52	1416.1 ± 1.3	927.058 ± 0.52	1396.5 ± 1.3	922.423 ± 0.52	1376.9 ± 1.3	917.79 ± 0.52
CC(=O)N(C)C [N,N-dimethylethanamide] + [Ba+2].[O-][Cl+3]([O-])([O-])[O-].[O-][Cl+3]([O-])([O-])[O-]	–	–	–	–	–	–	–	–	–	–	1455.9 ± 1.3	936.277 ± 0.54	1436 ± 1.3	931.67 ± 0.54	1416.2 ± 1.3	927.058 ± 0.54	1396.5 ± 1.3	922.423 ± 0.54	1376.9 ± 1.3	917.79 ± 0.55
CN(C)C=O [dimethylformamide]	1457.2 ± 1.3	943.913 ± 0.14	1437.9 ± 1.3	939.139 ± 0.14	1418.5 ± 1.3	934.354 ± 0.14	1399.3 ± 1.3	929.554 ± 0.14	1380 ± 1.3	924.744 ± 0.14	–	–	–	–	–	–	–	–	–	–
CN(C)C=O [dimethylformamide] + O=S(=O)([O-])C(F)(F)F.O=S(=O)([O-])C(F)(F)F.[Ca+2]	–	–	–	–	–	–	–	–	–	–	1457.2 ± 1.3	943.915 ± 0.44	1437.9 ± 1.3	939.142 ± 0.44	1418.5 ± 1.3	934.356 ± 0.45	1399.2 ± 1.3	929.553 ± 0.45	1380 ± 1.3	924.746 ± 0.45
CN(C)C=O [dimethylformamide] + O=S(=O)([O-])C(F)(F)F.O=S(=O)([O-])C(F)(F)F.[Mg+2]	–	–	–	–	–	–	–	–	–	–	1457.1 ± 1.3	943.905 ± 0.43	1437.9 ± 1.3	939.125 ± 0.43	1418.5 ± 1.3	934.34 ± 0.43	1399.2 ± 1.3	929.543 ± 0.43	1380 ± 1.3	924.732 ± 0.43
CN(C)C=O [dimethylformamide] + O=S(=O)([O-])C(F)(F)F.O=S(=O)([O-])C(F)(F)F.[Sr+2]	–	–	–	–	–	–	–	–	–	–	1457.2 ± 1.3	943.913 ± 0.51	1438 ± 1.3	939.144 ± 0.51	1418.6 ± 1.3	934.36 ± 0.51	1399.3 ± 1.3	929.56 ± 0.51	1380.1 ± 1.3	924.748 ± 0.51
CN(C)C=O [dimethylformamide] + [Ba+2].[O-][Cl+3]([O-])([O-])[O-].[O-][Cl+3]([O-])([O-])[O-]	–	–	–	–	–	–	–	–	–	–	1457.2 ± 1.3	943.919 ± 0.54	1437.8 ± 1.3	939.144 ± 0.54	1418.5 ± 1.3	934.36 ± 0.55	1399.2 ± 1.3	929.56 ± 0.55	1380 ± 1.3	924.748 ± 0.55
